According to the CheMixHub viscosity set:
Where “and” joins values, the source holds several entries; their conditions need not be identical. Identical values can stand only once.

Experiment: xn = mol fraction of the nth substance listed

CCCC[NH2+]CCO.O=C([O-])c1ccccc1O + O
100 kPa, x2 = 0.142
Details | viscosity [mPa·s]
298 K | 876
303 K | 582.8
313 K | 275.5
323 K | 145

COc1ccc2cc([C@H](C)C(=O)O)ccc2c1 + CC#N
101 kPa
Details | viscosity [mPa·s]
297.93 K, x1 = 0.000702 | 0.3571
297.96 K, x1 = 0.000233 | 0.3546
298.01 K, x1 = 0.001151 | 0.3583
298.04 K, x1 = 0.001587 | 0.3603
298.07 K, x1 = 0.002732 | 0.364
301.61 K, x1 = 0.001151 | 0.3461
301.69 K, x1 = 0.000233 | 0.3425
301.69 K, x1 = 0.001587 | 0.3476
301.7 K, x1 = 0.000702 | 0.344
301.75 K, x1 = 0.002732 | 0.351
303.56 K, x1 = 0.001151 | 0.3398
303.58 K, x1 = 0.002732 | 0.3453
303.65 K, x1 = 0.000233 | 0.3359
303.66 K, x1 = 0.001587 | 0.342
303.69 K, x1 = 0.000702 | 0.3371
305.66 K, x1 = 0.000233 | 0.3303
305.66 K, x1 = 0.001151 | 0.3329
305.7 K, x1 = 0.002732 | 0.3376
305.71 K, x1 = 0.000702 | 0.331
305.71 K, x1 = 0.001587 | 0.3347
308.62 K, x1 = 0.001151 | 0.324
308.64 K, x1 = 0.001587 | 0.3252
308.71 K, x1 = 0.000233 | 0.3206
308.75 K, x1 = 0.002732 | 0.3279
308.76 K, x1 = 0.000702 | 0.322
311.62 K, x1 = 0.001151 | 0.3149
311.63 K, x1 = 0.001587 | 0.3163
311.68 K, x1 = 0.002732 | 0.3191
311.69 K, x1 = 0.000233 | 0.3119
311.72 K, x1 = 0.000702 | 0.3132

C[N+](=O)[O-] + CCCCO
viscosity [mPa·s], 101 kPa
Details | 298.15 K | 303.15 K | 308.15 K | 313.15 K | 318.15 K | 323.15 K
x1 = 0.1 | – | 1.815 | 1.607 | 1.438 | 1.283 | 1.156
x1 = 0.1589 | 1.93 | – | – | – | – | –
x1 = 0.2 | – | 1.448 | 1.305 | 1.172 | 1.067 | 0.968
x1 = 0.299 | 1.499 | – | – | – | – | –
x1 = 0.2999 | – | 1.218 | 1.107 | 0.996 | 0.906 | 0.828
x1 = 0.4 | – | 1.052 | 0.955 | 0.868 | 0.8 | 0.73
x1 = 0.4222 | 1.172 | – | – | – | – | –
x1 = 0.5016 | – | 0.918 | 0.834 | 0.762 | 0.7 | 0.646
x1 = 0.5319 | 0.9681 | – | – | – | – | –
x1 = 0.6017 | – | 0.802 | 0.73 | 0.672 | 0.622 | 0.578
x1 = 0.6302 | 0.8288 | – | – | – | – | –
x1 = 0.6991 | – | 0.706 | 0.654 | 0.605 | 0.565 | 0.527
x1 = 0.7188 | 0.7435 | – | – | – | – | –
x1 = 0.7993 | 0.6894 | – | – | – | – | –
x1 = 0.8059 | – | 0.624 | 0.583 | 0.549 | 0.518 | 0.488
x1 = 0.8718 | 0.6557 | – | – | – | – | –
x1 = 0.903 | – | 0.586 | 0.553 | 0.524 | 0.499 | 0.474
x1 = 0.9387 | 0.6378 | – | – | – | – | –

CCCCCCn1cc[n+](C)c1.F[P-](F)(F)(F)(F)F + CCCCCCn1cc[n+](C)c1.[Cl-]
viscosity [mPa·s], 101 kPa
Details | 303.15 K | 308.15 K | 313.15 K | 318.15 K | 323.15 K
x2 = 0.2 | 962.7 | 679 | 486.2 | 357.7 | –
x2 = 0.4 | – | – | 854.7 | 598.9 | 433.5
x2 = 0.6 | – | – | – | – | 705.5

CCCC[n+]1cc[nH]c1.O=S(=O)([N-]S(=O)(=O)C(F)(F)F)C(F)(F)F + N
Details | viscosity [mPa·s]
313.2 K, 101.33 kPa, x2 = 0.7076 | 9.866

N + O
Details | viscosity [mPa·s]
293.15 K, 100 kPa, x1 = 0.1035 | 1.166
293.15 K, 101 kPa, x1 = 0.0111 | 1.025
303 K, 100 kPa, x1 = 0.053 | 0.86
303 K, 100 kPa, x1 = 0.105 | 0.92
303 K, 100 kPa, x1 = 0.157 | 0.97
303 K, 100 kPa, x1 = 0.209 | 1
303.15 K, 100 kPa, x1 = 0.05336 | 0.838
303.15 K, 100 kPa, x1 = 0.1035 | 0.994
313 K, 100 kPa, x1 = 0.053 | 0.69
313 K, 100 kPa, x1 = 0.105 | 0.72
313 K, 100 kPa, x1 = 0.157 | 0.75
313 K, 100 kPa, x1 = 0.209 | 0.79
313.15 K, 100 kPa, x1 = 0.05336 | 0.666
313.15 K, 100 kPa, x1 = 0.1035 | 0.833

ClC1CCCCC1 + CC1CCCO1
viscosity [mPa·s], 101.3 kPa
Details | x2 = 0.0984 | x2 = 0.1994 | x2 = 0.2986 | x2 = 0.4009 | x2 = 0.4991 | x2 = 0.5995 | x2 = 0.701 | x2 = 0.802 | x2 = 0.8995
298.15 K | 1.367 | 1.195 | 1.055 | 0.9325 | 0.8311 | 0.742 | 0.6638 | 0.5963 | 0.5378
313.15 K | 1.075 | 0.9535 | 0.8519 | 0.7611 | 0.6848 | 0.6167 | 0.5561 | 0.5018 | 0.4546

CC(=O)c1ccc(C)cc1 + CN(C)c1ccccc1
viscosity [mPa·s], 101 kPa
Details | 303.15 K | 308.15 K
x2 = 0.0481 | 1.541 | 1.493
x2 = 0.0942 | 1.512 | 1.462
x2 = 0.1558 | 1.478 | 1.428
x2 = 0.2311 | 1.442 | 1.39
x2 = 0.2972 | 1.411 | 1.359
x2 = 0.3584 | 1.382 | 1.33
x2 = 0.4254 | 1.356 | 1.303
x2 = 0.4949 | 1.331 | 1.275
x2 = 0.5492 | 1.31 | 1.252
x2 = 0.5964 | 1.295 | 1.234
x2 = 0.6887 | 1.264 | 1.204
x2 = 0.7635 | 1.24 | 1.181
x2 = 0.8596 | 1.213 | 1.149

OC[C@@H](O)[C@@H](O)[C@H](O)[C@H](O)CO + O
viscosity, 101 kPa
Details | 298.15 K | 303.15 K | 308.15 K | 313.15 K | 318.15 K | 323.15 K
x1 = 0.002 | – | 0.837 mPa·s | 0.748 mPa·s | 0.674 mPa·s | – | 0.565 mPa·s
x1 = 0.003588 | 0.9818 mPa·s | – | – | – | – | –
x1 = 0.004 | – | 0.872 mPa·s | 0.777 mPa·s | 0.705 mPa·s | 0.645 mPa·s | 0.587 mPa·s
x1 = 0.005 | – | 0.909 mPa·s | 0.814 mPa·s | 0.732 mPa·s | 0.671 mPa·s | 0.61 mPa·s
x1 = 0.007 | – | 0.941 mPa·s | 0.845 mPa·s | 0.757 mPa·s | 0.692 mPa·s | 0.626 mPa·s
x1 = 0.007158 | 1.085 mPa·s | – | – | – | – | –
x1 = 0.009 | – | 0.983 mPa·s | 0.883 mPa·s | 0.788 mPa·s | 0.722 mPa·s | 0.653 mPa·s
x1 = 0.01 | – | 1.069 mPa·s | 0.914 mPa·s and 0.949 mPa·s and 0.992 mPa·s | 0.821 mPa·s and 0.886 mPa·s | 0.75 mPa·s and 0.777 mPa·s and 0.81 mPa·s | 0.673 mPa·s and 0.697 mPa·s and 0.731 mPa·s
x1 = 0.01069 | 1.191 mPa·s | – | – | – | – | –
x1 = 0.01422 | 1.311 mPa·s | – | – | – | – | –
x1 = 0.01769 | 1.442 mPa·s | – | – | – | – | –
x1 = 0.018 | – | 1.217 mPa·s | 1.088 mPa·s | 0.966 mPa·s | 0.876 mPa·s | 0.786 mPa·s
x1 = 0.02 | – | 1.17 mPa·s | 1.038 mPa·s | 0.928 mPa·s | 0.84 mPa·s | 0.756 mPa·s

C[N+](=O)[O-] + CCC(C)=O
298.15 K, 101 kPa
Details | viscosity [mPa·s]
x1 = 0.1563 | 0.4237
x1 = 0.2954 | 0.4466
x1 = 0.418 | 0.4694
x1 = 0.5281 | 0.4923
x1 = 0.6264 | 0.515
x1 = 0.7156 | 0.5377
x1 = 0.7963 | 0.5604
x1 = 0.8703 | 0.5834
x1 = 0.9376 | 0.6067
